Assays:
[1] = Tolerability in HSAX2655-tumor bearing mice (body weight, survival); format: in vivo; details: p.o., q24h, Compound A 30 mg/kg, Compound C 75 mg/kg, day 14 post 1st treatment; for Host Survival: survivors/group
Procedure: Compounds A and C were formulated fresh for each administration. The compounds were dissolved in 0.5% methylcellulose. For efficacy experiments, mice were randomized into groups of n=5 and treated for 14 days. Compound A was injected at 30 mg/kg and Compound C at 75, 150 and 250 mg/kg. Mice were treated daily (q24 h) p.o. at 10 ml/kg for both drugs. On the last day of experiment, mice from each treatment group were sacrificed 4 and 24 h post last treatment and tumors were snap-frozen.
Efficacy and tolerability were assessed by determining tumor volume and body weight, respectively. Tumor volume (TVol), determined from caliper measurements (using the formula I*w*h*π/6) were measured three times per week. Tumor response was quantified by the change in tumor volume (endpoint minus starting value in mm^3) as the T/C i.e.
[formula] The body-weight (BW) of the mice was measured three times per week allowing calculation at any particular time-point relative to the day of initiation of treatment (day 0) of both the percentage change in BW (Δ % BW).
Differences between the means of TVol and BW were assessed on the endpoint ΔTvol or % ΔBW using a 1-way ANOVA with Dunnett or Tukey's tests post-hoc. Linear correlations were explored by determining Pearson correlation coefficient, with P<0.05 considered as significant.

HSAX2655 tumor = experiment: Well differentiated liposarcoma (WDLPS) patient-derived in vivo model HSAX2655, efficacy; parameters: species or system Harlan nude mice; details: p.o., q24h, Compound A 30 mg/kg, Compound C 75 mg/kg; for Tumor T/C: day 14 post 1st treatment; for Tumor ΔTvol: day 37 post transplantation (day 14 post 1st treatment)
Procedure: PDX tumors were induced by transplanting subcutaneously frozen pieces of tumors in the right flank of Harlan nude mice. After several weeks of growth, donor animals were sacrificed and tumors were taken out and cut in 3×3×3 mm^3 pieces. Each tumor piece was transplanted subcutaneously in the right flank of naive Harlan nude mice. Efficacy experiment could start 30 days post transplantation. Compounds A and C were formulated fresh for each administration. The compounds were dissolved in 0.5% methylcellulose. For efficacy experiments, mice were randomized into groups of n=5 and treated for 14 days. Compound A was injected at 30 mg/kg and Compound C at 75, 150 and 250 mg/kg. Mice were treated daily (q24 h) p.o. at 10 ml/kg for both drugs. On the last day of experiment, mice from each treatment group were sacrificed 4 and 24 h post last treatment and tumors were snap-frozen. Efficacy and tolerability were assessed by determining tumor volume and body weight, respectively. Tumor volume (TVol), determined from caliper measurements (using the formula I*w*h*π/6) were measured three times per week. Tumor response was quantified by the change in tumor volume (endpoint minus starting value in mm^3) as the T/C i.e. [formula] In the case of tumor regression, the tumor response was quantified by the percentage of regression of the starting TVol, ie Differences between the means of TVol and BW were assessed on the endpoint ΔTvol or % ΔBW using a 1-way ANOVA with Dunnett or Tukey's tests post-hoc. Linear correlations were explored by determining Pearson correlation coefficient, with P<0.05 considered as significant. A non-statistical analysis of the combination effects of therapy on the efficacy were calculated using a modification of the method described by Clark (1997) to obtain a Combination Index (CI). Thus, multiplication of the AUC-T/Cs for single agents A and B was compared to the AUC-T/C obtained for the actual combination A+B.

[2] = system: liposarcoma cell line LP6; experiment: Microscopy (nuclei count) proliferation assay, 72 hrs, LP6 cells; format: cell-based; details: single agent
Procedure: (§1) Compounds B and C were dissolved in 100% DMSO (Sigma, Catalog number D2650) at concentrations of 10 mM and stored at −20° C. until use. Compounds were arrayed in 300 uL deep well 384-well plates (BrandTec, Catalog number 701355) at 8× the highest final concentration. Row and column dilutions were prepared separately using a Bravo liquid handler (Agilent Technologies). Dilutions were made at 1:2 giving a total of 10 dilutions for each compound. Once completed the row and column dilution plates were combined 1:1 giving a final stamping plate at 4× concentration.
(§2) The cell lines 449b, 778 and LP6 were cultured in RPMI1640 (ATCC, Catalog number 30-2110) supplemented with 10% FBS (HyClone, Catalog number SH30071.03) at 37° C. and 5% CO2. In all cases cells were thawed from frozen stocks, expanded through ≥1 passage using 1:6 dilutions. Cells were counted and assessed for viability using a ViCell counter (Beckman-Coulter). The identity of all the cell lines was confirmed by SNP profiling. […]
(§3) An automated image analysis pipeline was established using custom-made scripts in the open-source, statistical programming language R, and functions of the BioConductor package EBImage. The goal was to quantify the number of viable nuclei (cells) per well as an approximation for cell viability. […]

[3] = system: liposarcoma cell line 449b; experiment: Microscopy (nuclei count) proliferation assay, 72 hrs, 449b cells; format: cell-based; details: single agent
Procedure: as §1, §2, §3

[4] = system: liposarcoma cell line 778; experiment: Microscopy (nuclei count) proliferation assay, 72 hrs, 778 cells; format: cell-based; details: single agent
Procedure: as §1
The cell lines 449b, 778 and LP6 were cultured in RPMI1640 (ATCC, Catalog number 30-2110) supplemented with 10% FBS (HyClone, Catalog number SH30071.03) at 37° C. and 5% CO2. In all cases cells were thawed from frozen stocks, expanded through ≥1 passage using 1:6 dilutions. Cells were counted and assessed for viability using a ViCell counter (Beckman-Coulter). The identity of all the cell lines was confirmed by SNP profiling.
All cells were seeded at a concentration of […] cells/mL in 30 uL RPMI1640 media using a BioTek MicroFill (BioTek). Four 384-well plates were prepared per cell line (Greiner bio-one, catalog number 781091). The next day, compound was added using Bravo liquid handler. […] To other plates, compound was added and plates were incubated for 72 hrs. Following incubation period, 10 ul of the media was removed using the ELx405 Microplate Washer (BioTek/Thermo Scientific). […]
as §3

Compound	Host ΔBW [1] [%]	Host Survival [1]	Tumor T/C (HSAX2655 tumor) [%]	Tumor ΔTvol (HSAX2655 tumor)	IC50 [2] [nM]	IC50 [3] [nM]	IC50 ([4]; 72 h) [nM]	IC50 [4] [nM]
COc1cc2c(cc1OC(C)C)[C@H](c1ccc(Cl)cc1)N(c1ccc(N(C)C[C@H]3CC[C@H](N4CCN(C)C(=O)C4)CC3)cc1)C(=O)C2 [Compound A, (S)-1-(4-Chloro-phenyl)-7-isopropoxy-6-methoxy-2-(4-{methyl-[4-(4-methyl-3-oxo-piperazin-1-yl)-trans-cyclohexylmethyl]-amino}-phenyl)-1,4-dihydro-2H-isoquinolin-3-one]	6.9 ± 2.0	5/5	6	24 ± 12 ^a mm^3	–	–	–	–
COc1ncc(-c2nc3c(n2C(C)C)[C@H](c2ccc(Cl)cc2)N(c2cc(Cl)cn(C)c2=O)C3=O)c(OC)n1 [Compound B, (S)-5-(5-Chloro-1-methyl-2-oxo-1,2-dihydro-pyridin-3-yl)-6-(4-chloro-phenyl)-2-(2,4-dimethoxy-pyrimidin-5-yl)-1-isopropyl-5,6-dihydro-1H-pyrrolo[3,4-d]imidazol-4-one]	–	–	–	–	86	27.7	46.6	64.6
CN(C)C(=O)c1cc2cnc(Nc3ccc(N4CCNCC4)cn3)nc2n1C1CCCC1 [Compound C, 7-Cyclopentyl-2-(5-piperazin-1-yl-pyridin-2-ylamino)-7H-pyrrolo[2,3-d]pyrimidine-6-carboxylic acid dimethylamide]	4.7 ± 2.3	5/5	18	66 ± 18 ^a mm^3	475	130	59.3	–
